Test results from patent US20250034136A1 (Nimbus Wadjet, Inc., priority 2023, published 2025).
Where two headings read alike, the source gives them in different places.

Columns and labels:
[1] = system: p21 induction in HCT116 cells; assay: p21 induction in HCT116 cells; type: cell-based; settings: Homo sapiens, HCT-116, 24 h, read-out: P21_EC50
In short: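 EC50 from non-linear curve fit of p21 immunofluorescence (800 nm), with GAPDH (700 nm) read alongside. DMSO and a reference WRN inhibitor served as low and high controls. Cells (2,000/well) got 11 compound concentrations in duplicate for 24 h at 37 °C.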

[2] = target: WRN (BV08), human Werner helicase (Uniprot Q14191, amino acids 517-1235 with L1074F point mutation) (Homo sapiens (Human), UniProt Q14191, L1074F); assay: WRN (BV08) ADP-Glo assay; type: biochemical; settings: class symbols A-E, read-out: ADP-Glo_hWRN_IC50
Sequence of WRN (BV08), human Werner helicase (Uniprot Q14191, amino acids 517-1235 with L1074F point mutation) (Q14191 other isoform, or with tags, fused parts or gaps L1074F (already in the parent)): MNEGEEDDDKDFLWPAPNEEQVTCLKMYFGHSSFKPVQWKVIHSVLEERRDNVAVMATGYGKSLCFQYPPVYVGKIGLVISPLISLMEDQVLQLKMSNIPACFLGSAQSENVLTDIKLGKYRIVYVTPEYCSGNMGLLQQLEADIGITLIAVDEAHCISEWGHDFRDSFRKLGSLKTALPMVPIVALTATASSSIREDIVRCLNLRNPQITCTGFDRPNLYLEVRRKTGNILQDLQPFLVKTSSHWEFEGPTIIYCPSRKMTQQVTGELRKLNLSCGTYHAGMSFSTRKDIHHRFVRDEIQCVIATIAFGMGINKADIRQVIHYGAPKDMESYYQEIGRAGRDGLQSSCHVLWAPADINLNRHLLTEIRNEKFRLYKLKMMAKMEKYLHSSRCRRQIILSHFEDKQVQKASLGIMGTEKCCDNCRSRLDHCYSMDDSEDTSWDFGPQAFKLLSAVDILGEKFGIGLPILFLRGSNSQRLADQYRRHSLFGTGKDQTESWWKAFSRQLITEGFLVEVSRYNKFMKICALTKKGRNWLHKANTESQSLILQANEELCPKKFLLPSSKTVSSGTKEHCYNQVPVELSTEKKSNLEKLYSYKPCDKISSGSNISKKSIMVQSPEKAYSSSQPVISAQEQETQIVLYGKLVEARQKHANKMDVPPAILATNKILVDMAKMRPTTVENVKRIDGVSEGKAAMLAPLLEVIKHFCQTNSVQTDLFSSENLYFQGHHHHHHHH

[3] = HCT116 cells, 24 h compound incubation

| EC50 [1, 3] | IC50 [2] | SMILES | EC50 [1] |
| --- | --- | --- | --- |
| > 5000 nM | 50 to 100 nM | CCc1c(N2CCN(C(=O)c3ncnc(C)c3O)CC2)c(=O)c2nc(OC)cnc2n1CC(=O)Nc1ccc(C(F)(F)F)cc1Cl [I-81, N-(2-chloro-4-(trifluoromethyl)phenyl)-2-(6-ethyl-7-(4-(5-hydroxy-6-methylpyrimidine-4-carbonyl)piperazin-1-yl)-2-methoxy-8-oxopyrido[2,3-b]pyrazin-5(8H)-yl)acetamide] |  |
| > 5000 nM | 5 to 50 nM | CCc1c(N2CCN(C(=O)c3ncnc(C)c3O)CC2)c(=O)c2nc(C3=CCOCC3)cnc2n1CC(=O)Nc1ccc(C(F)(F)F)cc1Cl [I-82, N-(2-chloro-4-(trifluoromethyl)phenyl)-2-(2-(3,6-dihydro-2H-pyran-4-yl)-6-ethyl-7-(4-(5-hydroxy-6-methylpyrimidine-4-carbonyl)piperazin-1-yl)-8-oxopyrido[2,3-b]pyrazin-5(8H)-yl)acetamide] |  |
| > 5000 nM | 5 to 50 nM | CCc1c(N2CCN(C(=O)c3ncnc(C)c3O)CC2)c(=O)c2nc(C#N)cnc2n1CC(=O)Nc1ccc(C(F)(F)F)cc1Cl [I-83, N-(2-chloro-4-(trifluoromethyl)phenyl)-2-(2-cyano-6-ethyl-7-(4-(5-hydroxy-6-methylpyrimidine-4-carbonyl)piperazin-1-yl)-8-oxopyrido[2,3-b]pyrazin-5(8H)-yl)acetamide] |  |
| > 5000 nM | 50 to 100 nM | CCc1c(N2CCN(C(=O)c3ncnc(C)c3O)CC2)c(=O)c2nc(C(C)(C)O)cnc2n1CC(=O)Nc1ccc(C(F)(F)F)cc1Cl [I-84, N-(2-chloro-4-(trifluoromethyl)phenyl)-2-(6-ethyl-7-(4-(5-hydroxy-6-methylpyrimidine-4-carbonyl)piperazin-1-yl)-2-(2-hydroxypropan-2-yl)-8-oxopyrido[2,3-b]pyrazin-5(8H)-yl)acetamide] |  |
| 2000 to 5000 nM | 5 to 50 nM | CCc1c(N2CCN(C(=O)c3ncnc(C)c3O)CC2)c(=O)c2nc(Br)cnc2n1CC(=O)Nc1ccc(C(F)(F)F)cc1Cl [I-86, 2-(2-bromo-6-ethyl-7-(4-(5-hydroxy-6-methylpyrimidine-4-carbonyl)piperazin-1-yl)-8-oxopyrido[2,3-b]pyrazin-5(8H)-yl)-N-(2-chloro-4-(trifluoromethyl)phenyl)acetamide] |  |
| 500 to 2000 nM | 5 to 50 nM | CCc1c(N2CCN(C(=O)c3ncnc(C)c3O)C(C)(C)C2)c(=O)c2nc(N(C)C)cnc2n1CC(=O)Nc1ccc(C(F)(F)F)cc1Cl [I-87, N-(2-chloro-4-(trifluoromethyl)phenyl)-2-(2-(dimethylamino)-6-ethyl-7-(4-(5-hydroxy-6-methylpyrimidine-4-carbonyl)-3,3-dimethylpiperazin-1-yl)-8-oxopyrido[2,3-b]pyrazin-5(8H)-yl)acetamide] |  |
| > 5000 nM | 5 to 50 nM | CCc1c(N2CCN(C(=O)c3ncnc(C)c3O)CC2)c(=O)c2nc(N3CC[C@H](O)C3)cnc2n1CC(=O)Nc1ccc(C(F)(F)F)cc1Cl [I-88, (S)-N-(2-chloro-4-(trifluoromethyl)phenyl)-2-(6-ethyl-7-(4-(5-hydroxy-6-methylpyrimidine-4-carbonyl)piperazin-1-yl)-2-(3-hydroxypyrrolidin-1-yl)-8-oxopyrido[2,3-b]pyrazin-5(8H)-yl)acetamide] |  |
| > 5000 nM | 100 to 500 nM | CCc1c(N2CCN(C(=O)c3ncnc(C)c3O)CC2)c(=O)c2nc(N3CCNCC3)cnc2n1CC(=O)Nc1ccc(C(F)(F)F)cc1Cl [I-89, N-(2-chloro-4-(trifluoromethyl)phenyl)-2-(6-ethyl-7-(4-(5-hydroxy-6-methylpyrimidine-4-carbonyl)piperazin-1-yl)-8-oxo-2-(piperazin-1-yl)pyrido[2,3-b]pyrazin-5(8H)-yl)acetamide] |  |
| > 5000 nM | 5 to 50 nM | CCc1c(N2CCN(C(=O)c3ncnc(C)c3O)CC2)c(=O)c2nc(C3=CCOC3)cnc2n1CC(=O)Nc1ccc(C(F)(F)F)cc1Cl [I-90, N-(2-chloro-4-(trifluoromethyl)phenyl)-2-(2-(2,5-dihydrofuran-3-yl)-6-ethyl-7-(4-(5-hydroxy-6-methylpyrimidine-4-carbonyl)piperazin-1-yl)-8-oxopyrido[2,3-b]pyrazin-5(8H)-yl)acetamide] |  |
| > 5000 nM | 5 to 50 nM | CCc1c(N2CCN(C(=O)c3ncnc(C)c3O)CC2)c(=O)c2nc(N3CCn4nccc43)cnc2n1CC(=O)Nc1ccc(C(F)(F)F)cc1Cl [I-91, N-(2-chloro-4-(trifluoromethyl)phenyl)-2-(2-(2,3-dihydro-1H-imidazo[1,2-b]pyrazol-1-yl)-6-ethyl-7-(4-(5-hydroxy-6-methylpyrimidine-4-carbonyl)piperazin-1-yl)-8-oxopyrido[2,3-b]pyrazin-5(8H)-yl)acetamide] |  |
| 500 to 2000 nM | 5 to 50 nM | CCc1c(N2CCN(C(=O)c3ncnc(C)c3O)CC2)c(=O)c2nc(N(C)[C@H]3C[C@H](OC)C3)cnc2n1CC(=O)Nc1ccc(C(F)(F)F)cc1Cl [I-92, N-(2-chloro-4-(trifluoromethyl)phenyl)-2-(6-ethyl-7-(4-(5-hydroxy-6-methylpyrimidine-4-carbonyl)piperazin-1-yl)-2-(((1r,3r)-3-methoxycyclobutyl)(methyl)amino)-8-oxopyrido[2,3-b]pyrazin-5(8H)-yl)acetamide] |  |
| 500 to 2000 nM | 5 to 50 nM | CCc1c(N2CCN(C(=O)c3ncnc(C)c3O)CC2)c(=O)c2nc(N3CCC4CC43)cnc2n1CC(=O)Nc1ccc(C(F)(F)F)cc1Cl (stereo not shown) [I-93, 2-(2-(2-azabicyclo[3.1.0]hexan-2-yl)-6-ethyl-7-(4-(5-hydroxy-6-methylpyrimidine-4-carbonyl)piperazin-1-yl)-8-oxopyrido[2,3-b]pyrazin-5(8H)-yl)-N-(2-chloro-4-(trifluoromethyl)phenyl)acetamide] |  |
| > 5000 nM | 5 to 50 nM | CCc1c(N2CCN(C(=O)c3ncnc(C)c3O)CC2)c(=O)c2nc(-c3cn[nH]c3)cnc2n1CC(=O)Nc1ccc(C(F)(F)F)cc1Cl [I-94, N-(2-chloro-4-(trifluoromethyl)phenyl)-2-(6-ethyl-7-(4-(5-hydroxy-6-methylpyrimidine-4-carbonyl)piperazin-1-yl)-8-oxo-2-(1H-pyrazol-4-yl)pyrido[2,3-b]pyrazin-5(8H)-yl)acetamide] |  |
| < 500 nM | 5 to 50 nM | CCc1c(N2CCN(C(=O)c3ncnc(C)c3O)C[C@@H]2C)c(=O)c2nc(N(C)C)cnc2n1CC(=O)Nc1ccc(C(F)(F)F)cc1Cl [I-98, (S)—N-(2-chloro-4-(trifluoromethyl)phenyl)-2-(2-(dimethylamino)-6-ethyl-7-(4-(5-hydroxy-6-methylpyrimidine-4-carbonyl)-2-methylpiperazin-1-yl)-8-oxopyrido[2,3-b]pyrazin-5(8H)-yl)acetamide] |  |
| > 5000 nM | 5 to 50 nM | CCc1c(N2CCN(C(=O)c3ncnc(C)c3O)C[C@H]2C)c(=O)c2nc(N(C)C)cnc2n1CC(=O)Nc1ccc(C(F)(F)F)cc1Cl [I-99, (R)—N-(2-chloro-4-(trifluoromethyl)phenyl)-2-(2-(dimethylamino)-6-ethyl-7-(4-(5-hydroxy-6-methylpyrimidine-4-carbonyl)-2-methylpiperazin-1-yl)-8-oxopyrido[2,3-b]pyrazin-5(8H)-yl)acetamide] |  |
| < 500 nM | ≤ 5 nM | CCc1c(N2CCN(C(=O)c3ncnc(C)c3O)[C@H]3CC[C@@H]32)c(=O)c2nc(C3CC3)cnc2n1CC(=O)Nc1ccc(C(F)(F)F)cc1Cl [I-100, N-(2-chloro-4-(trifluoromethyl)phenyl)-2-(2-cyclopropyl-6-ethyl-7-((1S,6S)-5-(5-hydroxy-6-methylpyrimidine-4-carbonyl)-2,5-diazabicyclo[4.2.0]octan-2-yl)-8-oxopyrido[2,3-b]pyrazin-5(8H)-yl)acetamide] |  |
| < 500 nM | ≤ 5 nM | CCc1c(N2CCN(C(=O)c3ncnc(C)c3O)[C@H]3CC[C@@H]32)c(=O)c2nc(OC3CC3)cnc2n1CC(=O)Nc1ccc(C(F)(F)F)cc1Cl [I-102, N-(2-chloro-4-(trifluoromethyl)phenyl)-2-(2-cyclopropoxy-6-ethyl-7-((1S,6S)-5-(5-hydroxy-6-methylpyrimidine-4-carbonyl)-2,5-diazabicyclo[4.2.0]octan-2-yl)-8-oxopyrido[2,3-b]pyrazin-5(8H)-yl)acetamide] |  |
| < 500 nM | 5 to 50 nM | CCc1c(N2CCN(C(=O)c3ncnc(C)c3O)[C@H]3CC[C@@H]32)c(=O)c2nc(N(C)C)cnc2n1CC(=O)Nc1ccc(C(F)(F)F)cc1C [I-103, 2-(2-(dimethylamino)-6-ethyl-7-((1S,6S)-5-(5-hydroxy-6-methylpyrimidine-4-carbonyl)-2,5-diazabicyclo[4.2.0]octan-2-yl)-8-oxopyrido[2,3-b]pyrazin-5(8H)-yl)-N-(2-methyl-4-(trifluoromethyl)phenyl)acetamide] |  |
| < 500 nM | 5 to 50 nM | CCc1c(N2CCN(C(=O)c3ncnc(C)c3O)[C@H]3CC[C@@H]32)c(=O)c2nc(N(C)C)cnc2n1CC(=O)Nc1ccc(C(F)(F)F)cc1 [I-104, 2-(2-(dimethylamino)-6-ethyl-7-((1S,6S)-5-(5-hydroxy-6-methylpyrimidine-4-carbonyl)-2,5-diazabicyclo[4.2.0]octan-2-yl)-8-oxopyrido[2,3-b]pyrazin-5(8H)-yl)-N-(4-(trifluoromethyl)phenyl)acetamide] |  |

| SMILES | EC50 [1, 3] | IC50 [2] | EC50 [1] |
| --- | --- | --- | --- |
| CCc1c(N2CCN(C(=O)c3ncnc(C)c3O)CC2)c(=O)c2nc3nc(C)sc3nc2n1CC(=O)Nc1ccc(C(F)(F)F)cc1Cl [I-95, N-(2-chloro-4-(trifluoromethyl)phenyl)-2-(6-ethyl-7-(4-(5-hydroxy-6-methylpyrimidine-4-carbonyl)piperazin-1-yl)-2-methyl-8-oxopyrido[2,3-b]thiazolo[4,5-e]pyrazin-5(8H)-yl)acetamide] |  | 5 to 50 nM | 500 to 2000 nM |
